Test system: NCI-H1341 complex spheroids, percent test/control
Assay: Anticancer human tumor NCI-H1341 cell line growth inhibition [AhR];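 further: spheroids exposed to agents for seven days before readout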
Conditions: for IC50: curve of first compound; for viability, T/C: stronger effect = lower value
Summary of the method: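 Agents were dosed in half-log steps down from roughly clinical Cmax, or from 10 microM where Cmax was unknown, alone and with AhR antagonists. Read-out: percent test/control growth of tumor spheroids containing HUVEC and MSC stromal cells.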

[1] = second compound 0.1 µM, first compound 0.0316 µM
[2] = second compound 0.1 µM, first compound 0.1 µM
[3] = second compound 0.316 µM, first compound 0.0316 µM
[4] = second compound 0.316 µM, first compound 0.1 µM
[5] = second compound 1 µM, first compound 0.0316 µM
[6] = second compound 1 µM, first compound 0.1 µM
[7] = second compound 3.16 µM, first compound 0.0316 µM
[8] = second compound 3.16 µM, first compound 0.1 µM
[9] = second compound 10 µM, first compound 0.0316 µM
[10] = second compound 10 µM, first compound 0.1 µM

Question: Which IC50 (second compound 0.1 µM) does the source give for `CC1(C)CCC(CN2CCN(c3ccc(C(=O)NS(=O)(=O)c4ccc(NCC5CCOCC5)c([N+](=O)[O-])c4)c(Oc4cnc5[nH]ccc5c4)c3)CC2)=C(c2ccc(Cl)cc2)C1` + Cc1cncc(-c2nc(NCCc3c[nH]c4ccccc34)c3ncn(C(C)C)c3n2)c1 here?
Answer: > 10 µM

Question: What about the IC50 (second compound 0.316 µM) of the same molecule?
Answer: > 10 µM

Question: What about the IC50 (second compound 1 µM) of the same molecule?
Answer: > 10 µM

Question: What about the IC50 (second compound 3.16 µM) of the same molecule?
Answer: > 10 µM

Question: And the IC50 (second compound 10 µM)?
Answer: < 0.0316 µM

Question: What about the viability, T/C [1] of the same molecule?
Answer: 94.9%

Question: And the viability, T/C [2]?
Answer: 77.2%

Question: What about the viability, T/C (second compound 0.1 µM, first compound 0.316 µM) of the same molecule?
Answer: 81.5%

Question: What about the viability, T/C (second compound 0.1 µM, first compound 1 µM) of the same molecule?
Answer: 77%

Question: And the viability, T/C (second compound 0.1 µM, first compound 3.16 µM)?
Answer: 64.9%

Question: What about the viability, T/C (second compound 0.1 µM, first compound 10 µM) of the same molecule?
Answer: 68.3%

Question: And the viability, T/C [3]?
Answer: 86.6%

Question: And the viability, T/C [4]?
Answer: 77.9%

Question: And the viability, T/C (second compound 0.316 µM, first compound 0.316 µM)?
Answer: 71.3%

Question: And the viability, T/C (second compound 0.316 µM, first compound 1 µM)?
Answer: 73.3%

Question: What about the viability, T/C (second compound 0.316 µM, first compound 3.16 µM) of the same molecule?
Answer: 66.1%

Question: What about the viability, T/C (second compound 0.316 µM, first compound 10 µM) of the same molecule?
Answer: 78.1%

Question: And the viability, T/C [5]?
Answer: 79.4%

Question: And the viability, T/C [6]?
Answer: 80.9%

Question: What about the viability, T/C (second compound 1 µM, first compound 0.316 µM) of the same molecule?
Answer: 81.6%

Question: What about the viability, T/C (second compound 1 µM, first compound 1 µM) of the same molecule?
Answer: 71.8%

Question: And the viability, T/C (second compound 1 µM, first compound 3.16 µM)?
Answer: 63.9%

Question: And the viability, T/C (second compound 1 µM, first compound 10 µM)?
Answer: 60.3%

Question: What about the viability, T/C [7] of the same molecule?
Answer: 70.6%

Question: And the viability, T/C [8]?
Answer: 66.7%

Question: What about the viability, T/C (second compound 3.16 µM, first compound 0.316 µM) of the same molecule?
Answer: 66.1%

Question: What about the viability, T/C (second compound 3.16 µM, first compound 1 µM) of the same molecule?
Answer: 53.9%

Question: And the viability, T/C (second compound 3.16 µM, first compound 3.16 µM)?
Answer: 64.1%

Question: And the viability, T/C (second compound 3.16 µM, first compound 10 µM)?
Answer: 70.5%

Question: What about the viability, T/C [9] of the same molecule?
Answer: 49.9%

Question: And the viability, T/C [10]?
Answer: 43.3%

Question: And the viability, T/C (second compound 10 µM, first compound 0.316 µM)?
Answer: 45.2%

Question: And the viability, T/C (second compound 10 µM, first compound 1 µM)?
Answer: 39.8%

Question: What about the viability, T/C (second compound 10 µM, first compound 3.16 µM) of the same molecule?
Answer: 42%

Question: What about the viability, T/C (second compound 10 µM, first compound 10 µM) of the same molecule?
Answer: 41.9%

Question: For `CCN(c1cc(-c2ccc(CN3CCOCC3)cc2)cc(C(=O)NCc2c(C)cc(C)[nH]c2=O)c1C)C1CCOCC1` + Cc1cncc(-c2nc(NCCc3c[nH]c4ccccc34)c3ncn(C(C)C)c3n2)c1, which IC50 (second compound 0.1 µM) is on record?
Answer: > 3 µM

Question: And the IC50 (second compound 0.316 µM)?
Answer: > 3 µM

Question: What about the IC50 (second compound 1 µM) of the same molecule?
Answer: > 3 µM

Question: And the IC50 (second compound 3.16 µM)?
Answer: > 3 µM

Question: And the IC50 (second compound 10 µM)?
Answer: < 0.00949 µM

Question: And the viability, T/C (second compound 0.1 µM, first compound 0.00949 µM)?
Answer: 72.4%

Question: What about the viability, T/C (second compound 0.1 µM, first compound 0.03 µM) of the same molecule?
Answer: 91.7%

Question: And the viability, T/C (second compound 0.1 µM, first compound 0.0949 µM)?
Answer: 68.9%

Question: What about the viability, T/C (second compound 0.1 µM, first compound 0.3 µM) of the same molecule?
Answer: 70.9%

Question: What about the viability, T/C (second compound 0.1 µM, first compound 0.949 µM) of the same molecule?
Answer: 74.5%

Question: And the viability, T/C (second compound 0.1 µM, first compound 3 µM)?
Answer: 63.9%

Question: What about the viability, T/C (second compound 0.316 µM, first compound 0.00949 µM) of the same molecule?
Answer: 97.3%

Question: What about the viability, T/C (second compound 0.316 µM, first compound 0.03 µM) of the same molecule?
Answer: 82.3%

Question: And the viability, T/C (second compound 0.316 µM, first compound 0.0949 µM)?
Answer: 89%

Question: What about the viability, T/C (second compound 0.316 µM, first compound 0.3 µM) of the same molecule?
Answer: 76.1%

Question: And the viability, T/C (second compound 0.316 µM, first compound 0.949 µM)?
Answer: 85%

Question: And the viability, T/C (second compound 0.316 µM, first compound 3 µM)?
Answer: 76.8%

Question: And the viability, T/C (second compound 1 µM, first compound 0.00949 µM)?
Answer: 69.5%

Question: What about the viability, T/C (second compound 1 µM, first compound 0.03 µM) of the same molecule?
Answer: 86.7%

Question: And the viability, T/C (second compound 1 µM, first compound 0.0949 µM)?
Answer: 69.8%

Question: What about the viability, T/C (second compound 1 µM, first compound 0.3 µM) of the same molecule?
Answer: 72%

Question: What about the viability, T/C (second compound 1 µM, first compound 0.949 µM) of the same molecule?
Answer: 65%

Question: And the viability, T/C (second compound 1 µM, first compound 3 µM)?
Answer: 57.5%

Question: And the viability, T/C (second compound 3.16 µM, first compound 0.00949 µM)?
Answer: 66.1%

Question: What about the viability, T/C (second compound 3.16 µM, first compound 0.03 µM) of the same molecule?
Answer: 77.3%

Question: And the viability, T/C (second compound 3.16 µM, first compound 0.0949 µM)?
Answer: 66.4%

Question: And the viability, T/C (second compound 3.16 µM, first compound 0.3 µM)?
Answer: 67.3%

Question: And the viability, T/C (second compound 3.16 µM, first compound 0.949 µM)?
Answer: 56.7%

Question: What about the viability, T/C (second compound 3.16 µM, first compound 3 µM) of the same molecule?
Answer: 54.4%

Question: And the viability, T/C (second compound 10 µM, first compound 0.00949 µM)?
Answer: 40.6%

Question: What about the viability, T/C (second compound 10 µM, first compound 0.03 µM) of the same molecule?
Answer: 41.7%

Question: And the viability, T/C (second compound 10 µM, first compound 0.0949 µM)?
Answer: 44.1%

Question: And the viability, T/C (second compound 10 µM, first compound 0.3 µM)?
Answer: 33.4%

Question: And the viability, T/C (second compound 10 µM, first compound 0.949 µM)?
Answer: 34.4%

Question: What about the viability, T/C (second compound 10 µM, first compound 3 µM) of the same molecule?
Answer: 32.5%

Question: Which results are given for `Cn1ncnc1C1c2n[nH]c(=O)c3cc(F)cc(c23)NC1c1ccc(F)cc1` (stereo not given) + Cc1cncc(-c2nc(NCCc3c[nH]c4ccccc34)c3ncn(C(C)C)c3n2)c1?
Answer: IC50 (second compound 0.1 µM): > 0.1 µM; IC50 (second compound 0.316 µM): > 0.1 µM; IC50 (second compound 1 µM): > 0.1 µM; IC50 (second compound 3.16 µM): > 0.1 µM; IC50 (second compound 10 µM): < 0.000316 µM; viability, T/C (second compound 0.1 µM, first compound 0.000316 µM): 99.9%; viability, T/C (second compound 0.1 µM, first compound 0.001 µM): 98.5%; viability, T/C (second compound 0.1 µM, first compound 0.00316 µM): 93.4%; viability, T/C (second compound 0.1 µM, first compound 0.01 µM): 89.3%; viability, T/C [1]: 80.6%; viability, T/C [2]: 69.1%; viability, T/C (second compound 0.316 µM, first compound 0.000316 µM): 87%; viability, T/C (second compound 0.316 µM, first compound 0.001 µM): 86.8%; viability, T/C (second compound 0.316 µM, first compound 0.00316 µM): 89.2%; viability, T/C (second compound 0.316 µM, first compound 0.01 µM): 91.7%; viability, T/C [3]: 66.8%; viability, T/C [4]: 73.4%; viability, T/C (second compound 1 µM, first compound 0.000316 µM): 78.2%; viability, T/C (second compound 1 µM, first compound 0.001 µM): 79.8%; viability, T/C (second compound 1 µM, first compound 0.00316 µM): 88.2%; viability, T/C (second compound 1 µM, first compound 0.01 µM): 95.6%; viability, T/C [5]: 80.6%; viability, T/C [6]: 64.5%; viability, T/C (second compound 3.16 µM, first compound 0.000316 µM): 73.9%; viability, T/C (second compound 3.16 µM, first compound 0.001 µM): 75.6%; viability, T/C (second compound 3.16 µM, first compound 0.00316 µM): 75.6%; viability, T/C (second compound 3.16 µM, first compound 0.01 µM): 72.6%; viability, T/C [7]: 77.2%; viability, T/C [8]: 62.5%; viability, T/C (second compound 10 µM, first compound 0.000316 µM): 38.7%; viability, T/C (second compound 10 µM, first compound 0.001 µM): 40.6%; viability, T/C (second compound 10 µM, first compound 0.00316 µM): 43.9%; viability, T/C (second compound 10 µM, first compound 0.01 µM): 42.1%; viability, T/C [9]: 36.1%; viability, T/C [10]: 40.2%

— PubChem BioAssay AID1919014 (Molecular Pharmacology Branch, DTP, NCI, 2023)
